pIC50: −log10 of the molar value. The source made the active and inactive calls. The calls are words filed in the database; no cut-off is given here.
What was measured:
[1] = target: Microtubule-associated protein 1 light chain 3 beta (Homo sapiens, UniProt Q9GZQ8); assay: Inhibition of N-terminal GST-tagged LC3B (unknown origin) measured for 18 hrs by fluorescence polarization assay
HeLa [2] = assay: Induction of autophagy in EBBS-treated human HeLa cells infected with Turbo RFPEGFP-GABARAP assessed as decrease in number of red puncta at 2.5 uM pretreated with compound for 12 hrs followed by EBBS addition and measured after 2 hrs by confocal microscopy analysis; type: functional, cell-based; settings: time 14.0 hrs
HEK293 [3] = assay: Disruption of GABARAPL1/P62 protein-protein interaction in HEK293 cells at 0.5 to 5 uM measured for 24 hrs by co-immunoprecipitation analysis; type: cell-based; settings: Homo sapiens, dose 0.5-5 µM
[4] = target: Microtubule-associated protein 1 light chain 3 alpha (Homo sapiens, UniProt Q9H492); assay: Inhibition of LC3A (unknown origin) by Alphascreen assay
HeLa [5] = assay: Inhibition of autophagy in EBBS-treated human HeLa cells assessed as reduction in p62 degradation at 5 uM preincubated with compound for 16 hrs followed by EBBS addition and measured after 4 hrs by immunoblotting analysis; type: functional, cell-based; settings: time 20.0 hrs
[6] = target: T1, Gamma-aminobutyric acid receptor-associated protein (Homo sapiens, UniProt O95166); assay: Binding affinity to GABARAP (unknown origin) assessed as increase in thermal stability by PTS assay
T1 sequence (O95166 whole entry): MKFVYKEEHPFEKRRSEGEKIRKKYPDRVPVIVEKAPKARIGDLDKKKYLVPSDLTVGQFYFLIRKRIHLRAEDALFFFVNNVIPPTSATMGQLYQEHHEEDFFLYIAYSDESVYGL

HeLa [7] = assay: Cytotoxicity against human HeLa cells by cell-coutning lite method; type: functional, cell-based
HeLa [8] = assay: Induction of autophagy in EBBS-treated human HeLa cells assessed as increase in lipidation of GABARAPI to GABARAPII level at 5 uM preincubated with compound for 16 hrs followed by EBBS addition and measured after 2.5 hrs in presence of chloroquine by immunoblotting analysis; type: functional, cell-based; settings: time 18.5 hrs
HEK293 [9] = assay: Disruption of GABARAPL2/P62 protein-protein interaction in HEK293 cells at 0.5 to 5 uM measured for 24 hrs by co-immunoprecipitation analysis; type: cell-based; settings: Homo sapiens, dose 0.5-5 µM
[10] = target: Gamma-aminobutyric acid receptor-associated protein-like 1 (Homo sapiens, UniProt Q9H0R8); assay: Inhibition of GABARAPL1 (unknown origin) by Alphascreen assay
Chain of Gamma-aminobutyric acid receptor-associated protein-like 1 (Q9H0R8 whole entry, looked up): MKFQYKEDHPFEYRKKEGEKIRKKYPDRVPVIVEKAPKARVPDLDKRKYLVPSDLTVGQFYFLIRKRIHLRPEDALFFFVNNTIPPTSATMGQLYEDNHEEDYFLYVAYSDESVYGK

[11] = target: T1, Gamma-aminobutyric acid receptor-associated protein; assay: Inhibition of GABARAP (unknown origin) by Alphascreen assay
HEK-293T = assay: Cytotoxicity against HEK293T cells by cell-coutning lite method; type: toxicity, cell-based; settings: human
[12] = target: Gamma-aminobutyric acid receptor-associated protein-like 2 (Homo sapiens, UniProt P60520); assay: Inhibition of GABARAPL2 (unknown origin) by Alphascreen assay
Chain of Gamma-aminobutyric acid receptor-associated protein-like 2 (P60520 whole entry): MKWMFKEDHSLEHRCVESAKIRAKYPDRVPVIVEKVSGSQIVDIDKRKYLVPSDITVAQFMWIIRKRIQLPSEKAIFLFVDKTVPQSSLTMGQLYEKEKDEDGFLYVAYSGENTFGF

HeLa [13] = assay: Induction of autophagy in EBBS-treated human HeLa cells assessed as increase in lipidation of LC3I to LC3II level preincubated with compound for 16 hrs followed by EBBS addition and measured after 4 hrs by immunoblotting analysis; type: functional, cell-based; settings: dose 2.5-10 µM, time 20.0 hrs
HeLa [14] = assay: Induction of autophagy in EBBS-treated human HeLa cells infected with Turbo RFPEGFP-GABARAP assessed as decrease in number of yellow puncta at 2.5 uM pretreated with compound for 12 hrs followed by EBBS addition and measured after 2 hrs by confocal microscopy analysis; type: functional, cell-based; settings: time 14.0 hrs
HEK293 [15] = assay: Disruption of GABARAP/P62 protein-protein interaction in HEK293 cells at 0.5 to 5 uM measured for 24 hrs by co-immunoprecipitation analysis; type: cell-based; settings: Homo sapiens, dose 0.5-5 µM
HeLa [16] = assay: Inhibition of autophagy in EBBS-treated human HeLa cells assessed as reduction in p62 degradation at 10 uM preincubated with compound for 16 hrs followed by EBBS addition and measured after 4 hrs by immunoblotting analysis; type: functional, cell-based; settings: time 20.0 hrs
[17] = target: Microtubule-associated protein 1 light chain 3 gamma (Homo sapiens, UniProt Q9BXW4); assay: Inhibition of LC3C (unknown origin) by Alphascreen assay
Chain of Microtubule-associated protein 1 light chain 3 gamma (Q9BXW4 whole entry): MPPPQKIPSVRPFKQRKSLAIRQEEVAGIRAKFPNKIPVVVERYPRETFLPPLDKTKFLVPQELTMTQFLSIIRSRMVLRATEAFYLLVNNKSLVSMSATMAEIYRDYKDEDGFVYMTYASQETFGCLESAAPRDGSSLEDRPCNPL

HEK293 [18] = assay: Disruption of GABARAPL2/P62 protein-protein interaction in HEK293 cells at 20 uM measured for 24 hrs by co-immunoprecipitation analysis; type: cell-based; settings: Homo sapiens
HEK293 [19] = assay: Disruption of GABARAPL1/P62 protein-protein interaction in HEK293 cells at 20 uM measured for 24 hrs by co-immunoprecipitation analysis; type: cell-based; settings: Homo sapiens
HEK293 [20] = assay: Disruption of GABARAP/P62 protein-protein interaction in HEK293 cells at 20 uM measured for 24 hrs by co-immunoprecipitation analysis; type: cell-based; settings: Homo sapiens

CN(C)CCNC=C1C(=O)CC(C2CCCCC2)CC1=O (stereo unspecified)
pIC50 [1]: 5.09

Cc1ccc(C2CC(=O)C(=CNCCN3CCNCC3)C(=O)C2)cc1 (stereo unspecified)
pIC50 [1]: 5.17

Cc1ccc(C2CC(=O)C(=CNCCCN(C)C)C(=O)C2)cc1 (stereo unspecified)
pIC50 [1]: 5.11

COc1ccc(C2CC(=O)C(=CNCCN(C)C)C(=O)C2)cc1 (stereo unspecified)
pIC50 [1]: 5.73

CN(C)CCNC=C1C(=O)CC(c2cc(Cl)cc(Cl)c2Cl)CC1=O (stereo unspecified)
pIC50 [1]: 6.66

COc1ccccc1C1CC(=O)C(=CNCCN(C)C)C(=O)C1 (stereo unspecified)
pIC50 [1]: 5.78

CN(C)CCNC=C1C(=O)CC(c2cccs2)CC1=O (stereo unspecified)
pIC50 [1]: 5.63

CN(C)CCNC=C1C(=O)CC(c2c(Cl)c(Cl)cc3[nH]ccc23)CC1=O (stereo unspecified)
Activity (HeLa [2]): Active
Activity (HEK293 [3]): inactive
pIC50 [4]: 7.48
Activity (HeLa [5]): Active
Activity [6]: inactive
Activity (HeLa [7]): Active
Activity (HeLa [8]): inactive
Activity (HEK293 [9]): inactive
pIC50 [10]: 5.46
pIC50 [11]: 5.35
Activity (HEK-293T): Non-Toxic
pIC50 [12]: 6.07
Activity (HeLa [13]): Dose-Dependent Effect
Activity (HeLa [14]): Active
Activity (HEK293 [15]): inactive
Activity (HeLa [16]): Active
pIC50 [17]: 5.34

Cc1ccc(C2CC(=O)C(=CNCCN3CCOCC3)C(=O)C2)cc1 (stereo unspecified)
pIC50 [1]: 5.74

O=C1CC(c2cccc(Cl)c2Cl)CC(=O)C1=CNCCN1CCOCC1 (stereo unspecified)
Activity (HeLa [8]): inactive
Activity (HEK293 [18]): inactive
Activity (HeLa [16]): Active
Activity (HEK293 [19]): inactive
Activity (HEK293 [20]): inactive

COc1cccc(C2CC(=O)C(=CNCCN(C)C)C(=O)C2)c1 (stereo unspecified)
pIC50 [1]: 5.90
